ChEMBL document CHEMBL2448811, “Comparison of the accuracy of experimental and predicted pKa values of basic and acidic compounds” (Pharm Res, 2013)
Where a SMILES comes first, the peptide text is derived from it.

Test: physchem
Details: not given

SMILES	pKa
CC(NC(C)(C)C)C(=O)c1cccc(Cl)c1 (stereo unspecified) [BUPROPION]	8.35
CN/C(=C/[N+](=O)[O-])NCCSCc1ccc(CN(C)C)o1	8.47

Same assay, conditions: pKa

SMILES	pKa
CCN1CCCC1CNC(=O)c1cc(S(=O)(=O)CC)c(N)cc1OC (stereo unspecified) [AMISULPRIDE]	9.37
CN(C)CC/C=C1\c2ccccc2COc2ccccc21 [E-DOXEPIN]	9
Nc1ccc(C(=O)O)c(O)c1 [AMINOSALICYLIC ACID]	3.62
COc1c(N2CCNC(C)C2)c(F)cc2c(=O)c(C(=O)O)cn(C3CC3)c12 (stereo unspecified) [GATIFLOXACIN]	8.74
CCCCNc1cc(C(=O)O)cc(S(N)(=O)=O)c1Oc1ccccc1 [BUMETANIDE]	3.83
CN1CCN(c2c(F)cc3c(=O)c(C(=O)O)cn(CCF)c3c2F)CC1 [FLEROXACIN]	8.8

Test: physchem
Details: not given
Remark: another data set of the same source

SMILES	pKa
CC(C(=O)O)c1ccc(-c2ccccc2)c(F)c1 (stereo unspecified) [FLURBIPROFEN]	4.3
Cc1ccc(C)c(N2CCN(C3CCC(C)C3)CC2)c1 (stereo unspecified)	7.5
CN1CCN(C2=Nc3cc(Cl)ccc3Nc3ccccc32)CC1 [CLOZAPINE]	7.8
O=c1[nH]c2ccccc2n1C1CCN(CCCC(c2ccc(F)cc2)c2ccc(F)cc2)CC1 [PIMOZIDE]	7.45
Cc1ccc(C)c(N2CCN(C3C4CC5CC(C4)CC3C5)CC2)c1 (stereo unspecified)	7.6
Nc1cc(-c2ccccc2)nc2ccc(Cl)cc12	7.4
CC(NCCC(c1ccccc1)c1ccccc1)c1ccccc1 (stereo unspecified) [FENDILINE]	9.3
C=CC1=C(C(=O)O)N2C(=O)[C@@H](NC(=O)/C(=N\O)c3csc(N)n3)[C@H]2SC1	3.35
Cc1ccc(-n2ncc(C(=O)Nc3nccs3)c2C2CCNCC2)cc1C	9.5
CC1CCN(CC(=O)Nc2ncc(Cc3cccc4ccccc34)s2)CC1	10.6
O=C(N[C@H]1CCCC[C@H]1C(=O)O)c1ccccc1	3.3
O=C(CN1CCCCC1)Nc1ncc(Cc2cccc3ccccc23)s1	10.5
Clc1ccc2c(c1)N=C(N1CCNCC1)c1ccccc1N2 [N-DESMETHYLCLOZAPINE]	8.9
CCCCNc1ccc(C(=O)OCCN(C)C)cc1 [TETRACAINE]	8.6
CN(C/C=C/C#CC(C)(C)C)Cc1cccc2ccccc12 [TERBINAFINE]	7.12
CCN1CCCC1CNC(=O)c1cc(S(=O)(=O)CC)c(N)cc1OC (stereo unspecified) [AMISULPRIDE]	9.3
COc1ccc2nc(NC(=O)CN3CCCCC3)sc2c1	10
CCCCC1CCN(CCCC(=O)c2ccccc2C)CC1	7.85
CC1CN(c2c(F)c(N)c3c(=O)c(C(=O)O)cn(C4CC4)c3c2F)CC(C)N1 (stereo unspecified)	6.1
O=C(CCCN1CC=C(n2c(=O)[nH]c3ccccc32)CC1)c1ccc(F)cc1 [DROPERIDOL]	7.6
CC(CN(C)C)CN1c2ccccc2Sc2ccccc21 (stereo unspecified) [METHYLPROMAZINE]	8.5
COc1ccc2nc(-c3ccccc3)cc(N)c2c1	8.7
COc1cc(CN2CCC3(C=Cc4ccccc43)CC2)cc(OC)c1OC	8.4
COc1ccc(C(=O)CCC(=O)O)cc1	4.7
CCn1cc(C(=O)O)c(=O)c2cc(F)c(N3CCNCC3)cc21 [NORFLOXACIN]	6.05
CN(C)CC/C=C1\c2ccccc2COc2ccccc21 [E-DOXEPIN]	8.7
CC(C(=O)O)c1ccc(C(=O)c2cccs2)cc1 (stereo unspecified) [SUPROFEN]	4.3

SMILES	pKa
CN(C)CCNC(=O)c1cc(-c2ccccc2)nc2ccccc12	8.3
CC(CN1c2ccccc2Sc2ccccc21)N(C)C (stereo unspecified) [PROMETHAZINE]	8.7
O=C(O)c1cc(-c2ccccc2)nc(O)n1	2.5
CC(C)(C)c1ccc(C(O)CCCN2CCC(C(O)(c3ccccc3)c3ccccc3)CC2)cc1 (stereo unspecified) [TERFENADINE]	8.5
CCCCOc1ccc(C(=O)CCN2CCCCC2)cc1 [DYCLONINE]	9
Cc1c(Cl)cccc1-n1ncc(C(=O)Nc2nccs2)c1C1CCNCC1	9.4
CCOC(=O)c1csc(NC(=O)CN2CCCCC2)n1	9.9
Cc1ccc(/C(=C\CN2CCCC2)c2ccccn2)cc1 [TRIPROLIDINE]	9.25
CC1OC(O[C@H]2/C=C/C=C/C=C/C=C/C=C/C=C/C=C/[C@H](C)[C@@H](O)[C@@H](C)[C@H](C)OC(=O)C[C@H](O)C[C@H](O)CC[C@@H](O)[C@H](O)C[C@H](O)C[C@]3(O)C[C@H](O)[C@@H](C(=O)O)[C@H](C2)O3)C(O)C(N)C1O (stereo partly specified)	3.1
CN[C@H]1CC[C@@H](c2ccc(Cl)c(Cl)c2)c2ccccc21 [SERTRALINE]	8
c1cnc(N2CCN(C3CC4CCC3C4)CC2)nc1 (stereo unspecified)	8
CN/C(=C/[N+](=O)[O-])NCCSCc1ccc(CN(C)C)o1	9.6
COc1ccc2nc(NC(=O)CN3CCC(C)CC3)sc2c1	10
CCN(CC)CCOC(=O)c1ccc(N)cc1Cl [CHLOROPROCAINE]	9
CC1CCN(CC(=O)Nc2nc(-c3ccccc3)cs2)CC1	10.5
Nc1cc(-c2ccccc2)nc2ccc(Br)cc12	7.4
NCc1cc(-c2ccccc2)nc2ccccc12	8.37
Nc1ccc(C(=O)O)c(O)c1 [AMINOSALICYLIC ACID]	3.4
COc1c(N2CCNC(C)C2)c(F)cc2c(=O)c(C(=O)O)cn(C3CC3)c12 (stereo unspecified) [GATIFLOXACIN]	9.4
O=C1NCN(c2ccccc2)C12CCN(CCCC(c1ccc(F)cc1)c1ccc(F)cc1)CC2	7.7
CC/C(=C(\c1ccccc1)c1ccc(OCCN(C)C)cc1)c1ccccc1 [TAMOXIFEN]	10
Cc1cnc(NC(=O)CN2CCCCC2)s1	10.6
O=C(O)c1ccccc1C(=O)Nc1nc(-c2ccccc2)cs1	3.4
CN(C)CCC=C1c2ccccc2CCc2ccccc21 [AMITRIPTYLINE]	8.2
O=C(O)CSCC(=O)Nc1nc(-c2ccccc2)c(-c2ccccc2)s1	4
CN1CCCCC1CCN1c2ccccc2Sc2ccc([S+](C)[O-])cc21 (stereo unspecified) [MESORIDAZINE]	9.5
NC(=O)C1CCN(CC(=O)Nc2nc(-c3ccccc3)cs2)CC1	10.2

SMILES	pKa
Cc1ccc(C)c(N2CCN(C3CCCCCC3)CC2)c1	7.54
CCCCNc1cc(C(=O)O)cc(S(N)(=O)=O)c1Oc1ccccc1 [BUMETANIDE]	3.6
CC1CCC(N2CCN(c3ccccc3F)CC2)CC1 (stereo unspecified)	7.4
O=C(O)c1ccccc1-c1ncc(-c2ccccc2)o1	2.9
CCOc1cc(CC(=O)N[C@@H](CC(C)C)c2ccccc2N2CCCCC2)ccc1C(=O)O [REPAGLINIDE]	3.75
C=C(CC)C(=O)c1ccc(OCC(=O)O)c(Cl)c1Cl [ETHACRYNIC ACID]	3.1
CC[C@]12CCCN3CCc4c(n(c5ccccc45)[C@@](O)(C(=O)OC)C1)C32 (stereo partly specified)	7.9
Nc1c2c(nc3ccccc13)-c1ccccc1CC2	8.1
CN(C)CCCN1c2ccccc2CCc2ccc(Cl)cc21 [CLOMIPRAMINE]	9.1
CN(C)CCC=C1c2ccccc2C=Cc2ccccc21 [CYCLOBENZAPRINE]	8.24
CN(C)CCC(c1ccc(Br)cc1)c1ccccn1 (stereo unspecified) [BROMPHENIRAMINE]	10.1
FC(F)(F)c1cccc(N2CCN(C3C4CC5CC(C4)CC3C5)CC2)c1 (stereo unspecified)	7.45
CCn1cc(C(=O)O)c(=O)c2cc(F)c(N3CCNC(C)C3)c(F)c21 (stereo unspecified) [LOMEFLOXACIN]	5.74
O=C1CCCN1CC#CCN1CCCC1 [OXOTREMORINE]	8.4
Cc1nc(NC(=O)CCCC(=O)O)sc1C	2.5
CN1CCN(c2c(F)cc3c(=O)c(C(=O)O)cn(CCF)c3c2F)CC1 [FLEROXACIN]	5.5
Cn1nnnc1SCC1=C(C(=O)O)N2C(=O)[C@@H](NC(=O)[C@H](O)c3ccccc3)[C@H]2SC1 [CEFAMANDOLE]	3.4
O=C(O)c1cccnc1 [NIACIN]	2.4
Cc1ccc(C)c(N2CCN(C3CCCC(C)C3)CC2)c1 (stereo unspecified)	7.16
CC(CN(C)C)CN1c2ccccc2CCc2ccccc21 (stereo unspecified) [TRIMIPRAMINE]	8.5
O=C(CN1CCCCC1)Nc1nc(-c2ccc(Cl)cc2)cs1	10.4
O=C(CCCN1CCC(O)(c2ccc(Cl)cc2)CC1)c1ccc(F)cc1 [HALOPERIDOL]	8.5
CC(Cc1ccc(O)c(O)c1)(NN)C(=O)O (stereo unspecified)	3.5
CCOC(=O)C1=C[C@]2(CC)CCCN3CCc4c(n1c1ccccc41)[C@@H]32 [VINPOCETINE]	7.1
Cc1cccc(-n2ncc(C(=O)Nc3nccs3)c2C2CCNCC2)c1	9.5

Test: physchem
Details: not given
Remark: another data set of the same source

SMILES	pKa
CCN(C)C(=O)Oc1cccc([C@H](C)N(C)C)c1 [RIVASTIGMINE]	8.8
CCC(=O)O[C@](Cc1ccccc1)(c1ccccc1)[C@H](C)CN(C)C [PROPOXYPHENE]	9.06
CC(Cc1ccc(C(C)(C)C)cc1)CN1C[C@@H](C)O[C@@H](C)C1 (stereo partly specified) [FENPROPIMORPH]	7.34

Same assay, conditions: pKa

SMILES	pKa
CC[C@H]1OC(=O)[C@H](C)[C@@H](O[C@H]2C[C@@](C)(OC)[C@@H](O)[C@H](C)O2)[C@H](C)[C@@H](O[C@@H]2O[C@H](C)C[C@H](N(C)C)[C@H]2O)[C@](C)(O)C[C@@H](C)/C(=N\OCOCCOC)[C@H](C)[C@@H](O)[C@]1(C)O [ROXITHROMYCIN]	9.27
CCCCC[C@H](O)/C=C/[C@H]1[C@H](O)CC(=O)[C@@H]1C/C=C\CCCC(=O)O [DINOPROSTONE]	4.77
CN(C)CCO[C@]1(c2ccccc2)C[C@H]2CC[C@]1(C)C2(C)C	9.61
CC[C@H]1OC(=O)C[C@@H](O)[C@H](C)[C@@H](O[C@@H]2O[C@H](C)C[C@H](N(C)C)[C@H]2O)[C@@H](CC=O)C[C@@H](C)C(=O)/C=C/C(C)=C/[C@@H]1C [REPROMICIN]	8.83
CNC(=C[N+](=O)[O-])NCCSCc1ccc(CN(C)C)o1 [RANITIDINE]	8.31
N[C@@H](Cc1c[nH]c2ccccc12)C(=O)N[C@@H](Cc1c[nH]c2ccccc12)C(=O)O (H-Trp-Trp-OH)	3.38
Cc1cc(=O)oc2cc(O[C@@H]3O[C@H](CO)[C@@H](O)[C@H](O)[C@H]3O)ccc12	2.82
N[C@@H](Cc1c[nH]c2ccccc12)C(=O)N[C@@H](Cc1ccccc1)C(=O)O (H-Trp-Phe-OH)	3.18
CNC[C@H](O)[C@@H](O)[C@H](O)[C@H](O)CO [MEGLUMINE]	9.6
CCN(CC)C(=O)Nc1ccc(OCC(O)CNC(C)(C)C)c(C(C)=O)c1 (stereo unspecified) [CELIPROLOL]	9.66
CCCCC[C@H](O)/C=C/[C@H]1[C@H](O)CC(=O)[C@@H]1CCCCCCC(=O)O [ALPROSTADIL]	4.87
CO[C@@H]1[C@@H](O[C@@H]2O[C@H](C)[C@@H](O)[C@H](N(C)C)[C@H]2O)[C@@H](CC=O)C[C@@H](C)C(=O)/C=C/[C@@H]2O[C@H]2C[C@@H](C)OC(=O)C[C@H]1OC(C)=O	8.44
N[C@@H](CC(=O)O)C(=O)O [ASPARTIC ACID]	9.67
N[C@@H](Cc1ccccc1)C(=O)O [PHENYLALANINE]	9.08

Test: physchem
Details: not given
Remark: another data set of the same source

SMILES	pKa
Nc1ccc(C(=O)O)cc1 [AMINOBENZOIC ACID]	4.87
CCCC(=O)OC(CC(=O)[O-])C[N+](C)(C)C (stereo unspecified) [Butyryl-carnitine]	3.56
